Test results: patent US20240374558A1, “PREPARATION OF PHENE[…] […] STEREOISOMERS THEREOF AND PRECURSORS THEREOF” (priority 2022, published 2024)

Target: T1, hERG (Homo sapiens, UniProt Q12809)
T1 construct: host or cells: CHO-K1
Assay: hERG Potassium Channel Assay, Qube APC
Format: cell-based
Conditions: Antagonist mode; CHO-hERG; test compound
Method: Where presented, IC50 values were determined by a non-linear, least squares regression analysis.
Recombinant HEK-293 cells stably transfected with human NavL.5 cDNA, recombinant HEK293 cell line expressing the human Cavl.2 (L-type voltage gated calcium channel, hCavl.2 alC/02a/a281, and recombinant CHO-K1 cells stably transfected with human hERG cDNA were used separately in each of these assays.
Ion Channels tested were Eurofins Panel Part Number: CPROFullQB2DR Voltage-Gated Sodium: HEK-Nav1.5 (Peak), HEK-Nav1.5 (Late, Antagonist) Voltage-Gated Potassium: HEK-Kv4.3/KChIP2, CHO-hERG, CHO-KCNQ1/minK Voltage-Gated Calcium: HEK-Cav1.2 Inward-Rectifying Voltage-Gated Potassium: HEK-Kir2.1.
hERG Potassium Channel Assay—Qube APC After whole cell configuration is achieved, the cells are held at −80 mV. Cells are held at this voltage for 50 ms to measure the leak current, which is subtracted from the tail current on-line. The cells are depolarized to +40 mV for 500 ms and then to −80 mV over a 100 ms ramp to elicit the hERG tail current. This paradigm is delivered once every 8s to monitor the current amplitude.

T1 sequence (Q12809 whole entry): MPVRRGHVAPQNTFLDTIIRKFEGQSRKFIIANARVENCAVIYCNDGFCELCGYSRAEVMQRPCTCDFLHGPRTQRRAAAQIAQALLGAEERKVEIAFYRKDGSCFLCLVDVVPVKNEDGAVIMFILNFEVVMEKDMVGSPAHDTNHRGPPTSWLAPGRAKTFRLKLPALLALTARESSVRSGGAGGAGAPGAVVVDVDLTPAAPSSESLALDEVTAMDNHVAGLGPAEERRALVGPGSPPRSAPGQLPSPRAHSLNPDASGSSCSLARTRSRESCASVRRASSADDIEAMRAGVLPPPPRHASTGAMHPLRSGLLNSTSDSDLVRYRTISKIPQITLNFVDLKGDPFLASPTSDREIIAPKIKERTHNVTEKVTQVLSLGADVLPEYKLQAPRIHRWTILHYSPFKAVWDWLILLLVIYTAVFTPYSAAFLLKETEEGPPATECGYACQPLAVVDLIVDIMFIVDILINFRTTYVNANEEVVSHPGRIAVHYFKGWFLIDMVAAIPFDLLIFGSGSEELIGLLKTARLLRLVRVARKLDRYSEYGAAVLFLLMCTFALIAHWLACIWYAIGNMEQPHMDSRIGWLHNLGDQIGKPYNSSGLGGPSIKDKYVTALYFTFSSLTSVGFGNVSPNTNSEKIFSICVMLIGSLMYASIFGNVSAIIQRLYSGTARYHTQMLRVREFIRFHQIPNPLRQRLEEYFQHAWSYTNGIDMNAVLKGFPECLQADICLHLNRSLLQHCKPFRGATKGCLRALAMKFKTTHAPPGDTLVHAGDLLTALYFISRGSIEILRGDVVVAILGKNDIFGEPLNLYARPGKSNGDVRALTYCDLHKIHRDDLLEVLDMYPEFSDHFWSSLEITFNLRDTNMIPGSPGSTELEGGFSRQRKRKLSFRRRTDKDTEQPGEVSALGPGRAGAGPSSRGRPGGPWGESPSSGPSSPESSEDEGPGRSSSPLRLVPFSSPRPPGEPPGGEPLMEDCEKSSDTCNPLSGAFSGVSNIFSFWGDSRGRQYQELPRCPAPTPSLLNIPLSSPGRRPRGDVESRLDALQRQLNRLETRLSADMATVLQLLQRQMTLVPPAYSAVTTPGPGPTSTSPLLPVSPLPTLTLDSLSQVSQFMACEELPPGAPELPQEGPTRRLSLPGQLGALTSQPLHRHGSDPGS

CN[C@H](C)C(=O)c1ccc2c(c1)OCO2 [(R)-methylone]
Estimated IC50: N/C (N/C indicates observed mean inhibition was <25%)

CN[C@@H](C)C(=O)c1ccc2c(c1)OCO2 [(S)-methylone]
Estimated IC50: N/C (N/C indicates observed mean inhibition was <25%)
